Results: US10800792B2, “Inhibitors of Bruton's tyrosine kinase and method of their use” (JANSSEN PHARMACEUTICA NV, priority 2015, dated 2020)

Biological target: unphosphorylated-BTK kinase domain (UP-BTK), GST-tagged human BTK (389-659aa) (Homo sapiens (Human), UniProt Q06187)
Test: BTK kinase Lanthascreen binding assay
Conditions: Lanthascreen tracer competition, 60 minutes incubation; pIC50 = negative log of the IC50 in molar
Procedure, shortened: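 Measures how well compounds compete with a fluorescence-labelled tracer for binding to BTK in its unphosphorylated state. IC50 values were fitted and expressed as pIC50 (negative logarithm of the molar IC50).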

Sequence of unphosphorylated-BTK kinase domain (UP-BTK), GST-tagged human BTK (389-659aa) (Q06187 389-659): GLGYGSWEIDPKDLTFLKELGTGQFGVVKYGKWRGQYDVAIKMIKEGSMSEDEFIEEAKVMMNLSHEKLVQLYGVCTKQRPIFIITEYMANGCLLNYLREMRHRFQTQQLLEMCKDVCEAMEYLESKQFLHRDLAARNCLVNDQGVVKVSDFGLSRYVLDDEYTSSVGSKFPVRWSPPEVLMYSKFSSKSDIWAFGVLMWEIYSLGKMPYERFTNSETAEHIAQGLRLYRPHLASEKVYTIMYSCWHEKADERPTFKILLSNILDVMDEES

With `Cc1cc(Oc2ccccc2)ccc1N1C(=O)Nc2c(C(=O)N[C@@H]3CCN(C(=O)/C(C#N)=C/C4CC4)C3)sc3nccc1c23` [Example 844, (R,E)-N-(1-(2-Cyano-3-cyclopropylacryloyl)pyrrolidin-3-yl)-5-(2-methyl-4-phenoxyphenyl)-4-oxo-4,5-dihydro-3H-1-thia-3,5,8-triazaacenaphthylene-2-carboxamide] as the molecule, how does the “BTK_I_binding pIC50” value read?
The value was 7.6.

With `Cc1cc(Oc2ccccc2)ccc1N1C(=O)Nc2c(C(=O)NC3CCCN(C(=O)CC#N)C3)sc3nccc1c23` (centres unmarked) [Example 882, N-(1-(2-Cyanoacetyl)piperidin-3-yl)-5-(2-methyl-4-phenoxyphenyl)-4-oxo-4,5-dihydro-3H-1-thia-3,5,8-triazaacenaphthylene-2-carboxamide] as the molecule, how does the “BTK_I_binding pIC50” value read?
Its value is 7.0.

With `Cc1cc(Oc2ccccc2)ccc1N1C(=O)Nc2c(C(=O)N[C@@H]3CCCN(C(=O)[C@H]4CCCN4)C3)sc3nccc1c23` [Example 876, 5-(2-Methyl-4-phenoxyphenyl)-4-oxo-N—((R)-1-((R)-pyrrolidine-2-carbonyl)piperidin-3-yl)-4,5-dihydro-3H-1-thia-3,5,8-triazaacenaphthylene-2-carboxamide] as the molecule, how does the “BTK_I_binding pIC50” value read?
The value was 7.1.

With `CCC(=O)N1CCC(C(=O)Nc2sc3nccc4c3c2NC(=O)N4c2ccc(Oc3ccccc3)cc2C)CC1` [Example 805, N-(5-(2-Methyl-4-phenoxyphenyl)-4-oxo-4,5-dihydro-3H-1-thia-3,5,8-triazaacenaphthylen-2-yl)-1-propionylpiperidine-4-carboxamide] as the molecule, how does the “BTK_I_binding pIC50” value read?
The value was 6.0.

`C=CC(=O)N1CC[C@H](NC(=O)c2sc3nccc4c3c2NC(=O)N4c2ccc(Oc3ccccc3)cc2C)C1` [Example 864, (S)—N-(1-Acryloylpyrrolidin-3-yl)-5-(2-methyl-4-phenoxyphenyl)-4-oxo-4,5-dihydro-3H-1-thia-3,5,8-triazaacenaphthylene-2-carboxamide] was tested. Which “BTK_I_binding pIC50” value did it give?
The value was 7.3.

With `Cc1cc(Oc2ccccc2)ncc1N1C(=O)Nc2c(C(=O)N[C@@H]3CCNC3)sc3nccc1c23` (single isomer, unassigned) [Example 702, (R)-5-(*S)-(4-Methyl-6-phenoxypyridin-3-yl)-4-oxo-N-(pyrrolidin-3-yl)-4,5-dihydro-3H-1-thia-3,5,8-triazaacenaphthylene-2-carboxamide] as the molecule, how does the “BTK_I_binding pIC50” value read?
The value was 6.8.

`CC(=O)N1CCC[C@@H](NC(=O)c2sc3nccc4c3c2NC(=O)N4c2ccc(Oc3cccnn3)cc2)C1` [Example 812, (R)—N-(1-Acetylpiperidin-3-yl)-4-oxo-5-(4-(pyridazin-3-yloxy)phenyl)-4,5-dihydro-3H-1-thia-3,5,8-triazaacenaphthylene-2-carboxamide] was tested. Which “BTK_I_binding pIC50” value did it give?
Its value is less than 6.

Same assay, conditions: Lanthascreen tracer competition, 60 minutes incubation; pIC50 = negative log of the IC50 in molar; read-out: BTK_I_binding pIC50 (converted)

How did the IC50 turn out when `C=CC(=O)N1CCC[C@@H](NC(=O)c2sc3nccc4c3c2NC(=O)N4c2ccc(Oc3ccccc3)cc2C)C1` [Example 839, (R)—N-(1-Acryloylpiperidin-3-yl)-5-(2-methyl-4-phenoxyphenyl)-4-oxo-4,5-dihydro-3H-1-thia-3,5,8-triazaacenaphthylene-2-carboxamide] was run?
The IC50 was 12.6 nM.

Same assay, conditions: pIC50 = negative log of the IC50 in molar; 60 minutes incubation, 50 nM Tracer 236

How did the “BTK_I_binding pIC50” value turn out when `CO[C@@H]1CNC[C@@H]1NC(=O)c1sc2nccc3c2c1NC(=O)N3c1ccc(Oc2ccccc2)cc1C` [Example 211, N-((3S,4R)-4-Methoxypyrrolidin-3-yl)-5-(2-methyl-4-phenoxyphenyl)-4-oxo-4,5-dihydro-3H-1-thia-3,5,8-triazaacenaphthylene-2-carboxamide] was run?
Its value is 6.7.

`C=CC(=O)N1CC[C@@H](NC(=O)c2sc3nccc4c3c2NC(=O)N4c2c(C)cc(Oc3ccccc3)cc2C)C1` [Example 81, (R)—N-(1-Acryloylpyrrolidin-3-yl)-5-(2,6-dimethyl-4-phenoxyphenyl)-4-oxo-4,5-dihydro-3H-1-thia-3,5,8-triazaacenaphthylene-2-carboxamide] was tested. Which “BTK_I_binding pIC50” value did it give?
Its value is 6.6.

For `Cc1cc(Oc2ccccc2)ccc1N1C(=O)Nc2c(C(=O)N[C@H]3CNC[C@@H]3O)sc3nccc1c23` [Example 236, N-((3S,4S)-4-Hydroxypyrrolidin-3-yl)-5-(2-methyl-4-phenoxyphenyl)-4-oxo-4,5-dihydro-3H-1-thia-3,5,8-triazaacenaphthylene-2-carboxamide], which “BTK_I_binding pIC50” value is on record?
The value was 7.0.

For `C=CC(=O)N1CCC[C@@H](NC(=O)c2sc3nccc4c3c2NC(=O)N4c2ccccc2C)C1` [Example 216, (R)—N-(1-Acryloylpiperidin-3-yl)-4-oxo-5-(o-tolyl)-4,5-dihydro-3H-1-thia-3,5,8-triazaacenaphthylene-2-carboxamide], which “BTK_I_binding pIC50” value is on record?
Its value is 6.7.

Which “BTK_I_binding pIC50” value does the source give for `C=CC(=O)N1CC[C@@H](NC(=O)c2sc3nccc4c3c2NC(=O)N4c2ccc(Oc3cccc4ccoc34)cc2C)C1` [Example 22, (R)—N-(1-Acryloylpyrrolidin-3-yl)-5-(4-(benzofuran-7-yloxy)-2-methylphenyl)-4-oxo-4,5-dihydro-3H-1-thia-3,5,8-triazaacenaphthylene-2-carboxamide] here?
Its value is 7.4.

`C=CC(=O)N1CCC[C@@H](NC(=O)c2sc3nccc4c3c2NC(=O)N4c2ccc(S(F)(F)(F)(F)F)cc2C)C1` [Example 83, (R)—N-(1-Acryloylpiperidin-3-yl)-5-(2-methyl-4-(pentafluorothio)phenyl)-4-oxo-4,5-dihydro-3H-1-thia-3,5,8-triazaacenaphthylene-2-carboxamide] was tested. Which “BTK_I_binding pIC50” value did it give?
The value was 6.8.

With `Cc1cc(Oc2ccccc2)ccc1N1C(=O)Nc2c(C(=O)N[C@@H]3CCCN(C(=O)[C@H]4CCNC4)C3)sc3nccc1c23` [Example 131, 5-(2-Methyl-4-phenoxyphenyl)-4-oxo-N—((R)-1-((S)-pyrrolidine-3-carbonyl)piperidin-3-yl)-4,5-dihydro-3H-1-thia-3,5,8-triazaacenaphthylene-2-carboxamide] as the molecule, how does the “BTK_I_binding pIC50” value read?
Its value is 7.5.

Same assay, conditions: unphosphorylated-BTK kinase domain, 50 nM Tracer 236, 60 minutes; pIC50 = negative log of the IC50 in molar

For `C=CC(=O)N1CC[C@@H](N(C)C(=O)c2sc3nccc4c3c2NC(=O)N4c2ccc(Oc3ccccc3)cc2C)C1` (single isomer, unassigned) [Example 442, (R)—N-(1-Acryloylpyrrolidin-3-yl)-N-methyl-5-(*R)-(2-methyl-4-phenoxyphenyl)-4-oxo-4,5-dihydro-3H-1-thia-3,5,8-triazaacenaphthylene-2-carboxamide], which “BTK_I_binding pIC50” value is on record?
The value was 6.9.

For `CO[C@@H]1CNC[C@H](NC(=O)c2sc3nccc4c3c2NC(=O)N4c2ccc(Oc3ccccc3)cc2C)C1` (relative stereo) [Example 467, N-((3R,5S)-5-Methoxypiperidin-3-yl)-5-(*S)-(2-methyl-4-phenoxyphenyl)-4-oxo-4,5-dihydro-3H-1-thia-3,5,8-triazaacenaphthylene-2-carboxamide], which “BTK_I_binding pIC50” value is on record?
Its value is 7.0.

For `Cc1cc(Oc2ccc(F)cc2)ccc1N1C(=O)Nc2c(C(=O)N[C@@H]3CCCN(C)C3)sc3nccc1c23` [Example 295, (R)-5-(4-(4-Fluorophenoxy)-2-methylphenyl)-N-(1-methylpiperidin-3-yl)-4-oxo-4,5-dihydro-3H-1-thia-3,5,8-triazaacenaphthylene-2-carboxamide], which “BTK_I_binding pIC50” value is on record?
Its value is 6.1.

For `CN(C)c1cccc(N2C(=O)Nc3c(C(=O)N[C@@H]4CCCNC4)sc4nccc2c34)c1` [Example 356, (R)-5-(3-(Dimethylamino)phenyl)-4-oxo-N-(piperidin-3-yl)-4,5-dihydro-3H-1-thia-3,5,8-triazaacenaphthylene-2-carboxamide], which “BTK_I_binding pIC50” value is on record?
Its value is less than 5.

Which “BTK_I_binding pIC50” value does the source give for `Cc1cc(Oc2ccccc2)ccc1N1C(=O)Nc2c(C(=O)N(C)[C@@H]3CCNC3)sc3nccc1c23` [Example 331, (R)—N-Methyl-5-(2-methyl-4-phenoxyphenyl)-4-oxo-N-(pyrrolidin-3-yl)-4,5-dihydro-3H-1-thia-3,5,8-triazaacenaphthylene-2-carboxamide] here?
Its value is 5.5.

With `Cc1cc(Oc2ccccc2)ccc1N1C(=O)Nc2c(C(=O)N[C@@H]3CCN(C(=O)/C=C/CN(C)C)C3)sc3nccc1c23` [Example 368, (R,E)-N-(1-(4-(Dimethylamino)but-2-enoyl)pyrrolidin-3-yl)-5-(2-methyl-4-phenoxyphenyl)-4-oxo-4,5-dihydro-3H-1-thia-3,5,8-triazaacenaphthylene-2-carboxamide] as the molecule, how does the “BTK_I_binding pIC50” value read?
Its value is 7.6.

`Cc1cc(Oc2ccccc2)ccc1N1C(=O)Nc2c(C(=O)N[C@@H]3CCN(C(=O)/C=C/CN)C3)sc3nccc1c23` (single isomer, unassigned) [Example 520, (R,E)-N-(1-(4-Aminobut-2-enoyl)pyrrolidin-3-yl)-5-(*S)-(2-methyl-4-phenoxyphenyl)-4-oxo-4,5-dihydro-3H-1-thia-3,5,8-triazaacenaphthylene-2-carboxamide] was tested. Which “BTK_I_binding pIC50” value did it give?
Its value is 8.1.

`C=CC(=O)N1CCC[C@@H](NC(=O)c2sc3nccc4c3c2NC(=O)N4c2ccn(Cc3ccccc3)n2)C1` [Example 420, (R)—N-(1-Acryloylpiperidin-3-yl)-5-(1-benzyl-1H-pyrazol-3-yl)-4-oxo-4,5-dihydro-3H-1-thia-3,5,8-triazaacenaphthylene-2-carboxamide] was tested. Which “BTK_I_binding pIC50” value did it give?
Its value is 6.0.

Same assay, conditions: unphosphorylated-BTK kinase domain, 60 minutes incubation, 50 nM Tracer 236; pIC50 = negative log of the IC50 in molar

For `O=C(NCCN1CCCC1)c1sc2nccc3c2c1NC(=O)N3c1ccc(Oc2ccccc2)cc1` [Example 927, 4-Oxo-5-(4-phenoxyphenyl)-N-(2-(pyrrolidin-1-yl)ethyl)-4,5-dihydro-3H-1-thia-3,5,8-triazaacenaphthylene-2-carboxamide], which “BTK_I_binding pIC50” value is on record?
The value was 6.2.

With `CN1CCC(NC(=O)c2sc3nccc4c3c2NC(=O)N4c2ccc(Oc3ccccc3)cc2)CC1` [Example 920, N-(1-Methylpiperidin-4-yl)-4-oxo-5-(4-phenoxyphenyl)-4,5-dihydro-3H-1-thia-3,5,8-triazaacenaphthylene-2-carboxamide] as the molecule, how does the “BTK_I_binding pIC50” value read?
The value was 6.4.

For `O=C(N[C@@H]1CCCNC1)c1sc2nccc3c2c1NC(=O)N3c1ccc(Cl)cc1` [Example 951, (R)-5-(4-Chlorophenyl)-4-oxo-N-(piperidin-3-yl)-4,5-dihydro-3H-1-thia-3,5,8-triazaacenaphthylene-2-carboxamide], which “BTK_I_binding pIC50” value is on record?
The value was 5.1.
